Reference: ChEMBL document CHEMBL5154659, “A3 adenosine receptor agonists containing dopamine moieties for enhanced interspecies affinity” (Eur J Med Chem, 2022)

Legend:
Adenosine receptor A2a [1] = target: T1, Adenosine receptor A2a (Homo sapiens, UniProt P29274); experiment: Binding affinity to human adenosine A2A receptor expressed in human HEK293 cell membrane at 10 uM by radioligand inhibition assay; type: cell membranes
Adenosine receptor A3 [2] = target: T2, Adenosine receptor A3 (Homo sapiens, UniProt P0DMS8); experiment: Displacement of [125I] N6-(4-amino-3-iodobenzyl)adenosine-5'-N-methyluronamide from human A3A receptor stably expressed in HEK293 cell membrane by radioligand inhibition assay; type: cell membranes
T2 sequence (P0DMS8 whole entry): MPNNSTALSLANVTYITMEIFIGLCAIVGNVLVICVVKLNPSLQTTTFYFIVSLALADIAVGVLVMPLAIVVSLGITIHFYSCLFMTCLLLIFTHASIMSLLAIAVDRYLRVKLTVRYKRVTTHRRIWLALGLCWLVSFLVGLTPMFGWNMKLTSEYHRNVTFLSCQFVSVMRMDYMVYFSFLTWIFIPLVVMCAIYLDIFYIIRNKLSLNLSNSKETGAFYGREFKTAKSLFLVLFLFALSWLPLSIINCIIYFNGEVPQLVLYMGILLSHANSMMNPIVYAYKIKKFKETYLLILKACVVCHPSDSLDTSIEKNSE

Adenosine receptor A2a [3] = target: T1, Adenosine receptor A2a; experiment: Displacement of [3H]-2-p-2-(carboxyethyl)phenyl-ethylamino-5'-N-ethylcarboxamidoadenosine from human A2A receptor stably expressed in HEK293 cell membrane by radioligand inhibition assay; type: cell membranes
Adenosine receptor A1 = target: T3, Adenosine receptor A1 (Mus musculus, UniProt Q60612); experiment: Displacement of [3H] N6-R-phenylisopropyladenosine from mouse A1A receptor stably expressed in HEK293 cell membrane by radioligand inhibition assay; type: cell membranes
T3 sequence (Q60612 whole entry): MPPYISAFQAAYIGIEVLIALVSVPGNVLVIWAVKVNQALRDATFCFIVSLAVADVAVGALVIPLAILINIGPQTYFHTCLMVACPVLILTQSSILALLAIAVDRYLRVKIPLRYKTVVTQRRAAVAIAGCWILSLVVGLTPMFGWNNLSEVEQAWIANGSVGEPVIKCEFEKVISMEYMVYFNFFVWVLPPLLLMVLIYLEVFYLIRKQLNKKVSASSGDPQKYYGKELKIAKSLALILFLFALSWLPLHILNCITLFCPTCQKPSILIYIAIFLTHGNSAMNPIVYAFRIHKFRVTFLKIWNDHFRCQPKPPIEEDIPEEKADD

Adenosine receptor A3 [4] = target: T4, Adenosine receptor A3 (Mus musculus, UniProt Q61618); experiment: Displacement of [125I] N6-4-amino-3-iodobenzyl adenosine 5-N-methyluronamide from mouse A3A receptor stably expressed in HEK293 cell membrane by radioligand inhibition assay; type: cell membranes
T4 sequence (Q61618 whole entry): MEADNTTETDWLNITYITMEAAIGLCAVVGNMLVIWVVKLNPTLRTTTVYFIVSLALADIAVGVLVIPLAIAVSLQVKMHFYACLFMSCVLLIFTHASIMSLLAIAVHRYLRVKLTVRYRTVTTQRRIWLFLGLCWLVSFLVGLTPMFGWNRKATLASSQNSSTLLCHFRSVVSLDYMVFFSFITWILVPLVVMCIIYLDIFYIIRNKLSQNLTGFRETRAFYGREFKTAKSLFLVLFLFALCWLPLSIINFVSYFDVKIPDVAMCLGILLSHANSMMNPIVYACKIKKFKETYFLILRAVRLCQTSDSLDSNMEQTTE

[5] = target: T5, Adenosine receptor A1 (Homo sapiens) (UniProt P30542); experiment: Binding affinity to human adenosine A1A receptor expressed in human HEK293 cell membrane at 10 uM by radioligand inhibition assay; type: cell membranes
T5 sequence (whole entry): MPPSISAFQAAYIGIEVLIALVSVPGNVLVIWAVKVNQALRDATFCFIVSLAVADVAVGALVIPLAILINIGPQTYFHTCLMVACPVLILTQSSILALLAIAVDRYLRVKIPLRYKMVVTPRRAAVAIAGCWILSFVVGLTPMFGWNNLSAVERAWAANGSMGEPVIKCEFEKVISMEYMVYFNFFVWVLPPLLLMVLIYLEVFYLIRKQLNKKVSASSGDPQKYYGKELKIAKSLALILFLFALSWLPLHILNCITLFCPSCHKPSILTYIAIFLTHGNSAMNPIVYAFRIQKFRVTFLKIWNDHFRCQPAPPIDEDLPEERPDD

[6] = target: T6, Adenosine receptor A1 (Mus musculus) (UniProt Q60612); experiment: Binding affinity to mouse adenosine A1A receptor expressed in human HEK293 cell membrane by radioligand inhibition assay; type: cell membranes; set-up: concentration or dose not given beside the values; conditions: concentration not given here
T6 sequence (whole entry): T3 sequence (Q60612 whole entry)

Adenosine receptor A3 [7] = target: T2, Adenosine receptor A3; experiment: Agonist activity at human adenosine A3A receptor stably expressed in HEK293 cells assessed as beta arrestin 2 recruitment potency by luciferase based NanoBiT assay; type: functional, cell-based
Adenosine receptor A3 [8] = target: T2, Adenosine receptor A3; experiment: Agonist activity at human adenosine A3A receptor stably expressed in HEK293 cells assessed as mini G-alpha recruitment potency by luciferase based NanoBiT assay; type: functional, cell-based

T1 sequence (P29274 whole entry): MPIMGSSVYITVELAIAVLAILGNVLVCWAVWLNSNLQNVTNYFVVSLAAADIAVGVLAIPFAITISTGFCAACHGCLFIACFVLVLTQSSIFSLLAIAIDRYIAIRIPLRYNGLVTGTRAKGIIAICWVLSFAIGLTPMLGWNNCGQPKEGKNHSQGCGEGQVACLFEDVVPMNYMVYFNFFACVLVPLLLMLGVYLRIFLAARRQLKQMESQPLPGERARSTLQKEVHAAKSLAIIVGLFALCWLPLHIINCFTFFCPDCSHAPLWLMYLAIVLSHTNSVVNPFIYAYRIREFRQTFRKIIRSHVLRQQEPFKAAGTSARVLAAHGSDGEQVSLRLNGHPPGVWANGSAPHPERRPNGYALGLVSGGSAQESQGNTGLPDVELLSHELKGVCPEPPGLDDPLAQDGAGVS

SMILES	inhibition (Adenosine receptor A2a [1]) [%]	Ki (Adenosine receptor A3 [2]) [nM]	Ki (Adenosine receptor A2a [3]) [nM]	Ki (Adenosine receptor A1) [nM]	Ki (Adenosine receptor A3 [4]) [nM]	inhibition [5] [%]	inhibition [6] [%]	EC50 (Adenosine receptor A3 [7]) [nM]	EC50 (Adenosine receptor A3 [8]) [nM]
CCOC(=O)[C@@]12C[C@@H]1[C@@H](n1cnc3c(NCCc4ccccc4)nc(C#Cc4ccc(Cl)s4)nc31)[C@H](O)[C@@H]2O	24	60.8	–	–	–	–	–	–	–
CNC(=O)[C@@]12C[C@@H]1[C@@H](n1cnc3c(NCCc4ccc(OC)c(O)c4)nc(OCCC(C)C)nc31)[C@H](O)[C@@H]2O	–	–	4860	480	5.03	–	–	–	–
CNC(=O)[C@@]12C[C@@H]1[C@@H](n1cnc3c(NCCc4ccc(O)c(OC)c4)nc(C#Cc4ccccc4)nc31)[C@H](O)[C@@H]2O	28	0.563	–	5130	1.54	2	–	–	–
CNC(=O)[C@@]12C[C@@H]1[C@@H](n1cnc3c(NCCc4ccc(O)c(OC)c4)nc(C#Cc4ccco4)nc31)[C@H](O)[C@@H]2O	32	3.25	–	–	1.56	9	40	–	–
CNC(=O)[C@@]12C[C@@H]1[C@@H](n1cnc3c(NCCc4ccc(O)c(OC)c4)nc(C#Cc4ccc(F)s4)nc31)[C@H](O)[C@@H]2O	32	3.31	–	–	1.46	2	48	24.9	23.7
CCOC(=O)[C@@]12C[C@@H]1[C@@H](n1cnc3c(NCCc4ccc(O)c(OC)c4)nc(C#Cc4ccc(Cl)s4)nc31)[C@H](O)[C@@H]2O	33	37.4	–	–	–	0	57	–	–
CNC(=O)[C@@]12C[C@@H]1[C@@H](n1cnc3c(NCCc4ccc(OC)c(OC)c4)nc(I)nc31)[C@H](O)[C@@H]2O	–	–	–	842	5.31	–	–	–	–
CNC(=O)[C@@]12C[C@@H]1[C@@H](n1cnc3c(NCCc4ccccc4)nc(C#Cc4ccc(Cl)s4)nc31)[C@H](O)[C@@H]2O	49	3.37	–	–	1.91	4	42	64	64.9
CNC(=O)[C@@]12C[C@@H]1[C@@H](n1cnc3c(NCCc4ccccc4)nc(C#Cc4ccccc4Cl)nc31)[C@H](O)[C@@H]2O	30	0.58	–	–	–	27	–	–	–
CNC(=O)[C@@]12C[C@@H]1[C@@H](n1cnc3c(NCCc4ccc(O)c(OC)c4)nc(I)nc31)[C@H](O)[C@@H]2O	43	6.34	–	476	2.25	46	–	–	–
CNC(=O)[C@@]12C[C@@H]1[C@@H](n1cnc3c(NCCc4ccc(O)c(OC)c4)nc(C#Cc4ccc(Br)s4)nc31)[C@H](O)[C@@H]2O	43	3.41	–	–	1.32	–	–	–	–
COc1cc(CCNc2nc(OCC(C)C)nc3c2ncn3[C@H]2[C@H](O)[C@H](O)[C@@H]3C[C@@H]32)ccc1O	–	13.1	5050	–	–	4	–	–	–
CNC(=O)[C@@]12C[C@@H]1[C@@H](n1cnc3c(NCCc4ccc(OC)c(O)c4)nc(OCCCC4CCCCC4)nc31)[C@H](O)[C@@H]2O	–	–	–	–	6.42	–	–	–	–
CNC(=O)[C@@]12C[C@@H]1[C@@H](n1cnc3c(NCc4ccc(O)c(OC)c4)nc(C#Cc4ccc(Cl)s4)nc31)[C@H](O)[C@@H]2O	–	–	8210	2330	–	–	–	–	–
CNC(=O)[C@@]12C[C@@H]1[C@@H](n1cnc3c(NCCc4ccc(OC)c(OC)c4)nc(C#Cc4ccc(Br)s4)nc31)[C@H](O)[C@@H]2O	36	8.01	–	–	–	–	–	–	–
CNC(=O)[C@@]12C[C@@H]1[C@@H](n1cnc3c(NCCc4ccc(O)c(OC)c4)nc(C#Cc4ccsc4)nc31)[C@H](O)[C@@H]2O	35	3.34	–	–	2.08	30	61	–	–
CNC(=O)[C@@]12C[C@@H]1[C@@H](n1cnc3c(NCCc4ccc(O)c(OC)c4)nc(C#Cc4ccc(F)c(F)c4)nc31)[C@H](O)[C@@H]2O	9	4.98	–	5800	3.31	11	–	–	–
CNC(=O)[C@@]12C[C@@H]1[C@@H](n1cnc3c(NCCc4ccc(O)c(O)c4)nc(C#Cc4ccc(Cl)s4)nc31)[C@H](O)[C@@H]2O	8	20.8	–	–	0.91	25	–	–	–
CNC(=O)[C@@]12C[C@@H]1[C@@H](n1cnc3c(NCCc4ccc(O)c(OC)c4)nc(C#Cc4cccs4)nc31)[C@H](O)[C@@H]2O	37	3.33	–	–	1.26	12	47	–	–
CNC(=O)[C@@]12C[C@@H]1[C@@H](n1cnc3c(NCCc4ccc(O)c(O)c4)nc(C#Cc4ccc(Br)s4)nc31)[C@H](O)[C@@H]2O	6	62.7	–	–	2.5	31	–	–	–
CNC(=O)[C@@]12C[C@@H]1[C@@H](n1cnc3c(NCCc4ccc(OC)c(O)c4)nc(OCC4CC4)nc31)[C@H](O)[C@@H]2O	–	–	4720	151	11.9	–	–	–	–
CNC(=O)[C@@]12C[C@@H]1[C@@H](n1cnc3c(NCCc4ccc(OC)c(O)c4)nc(C#Cc4ccc(Cl)s4)nc31)[C@H](O)[C@@H]2O	34	8.31	–	–	1.7	0	44	–	–
CCOC(=O)[C@@]12C[C@@H]1[C@@H](n1cnc3c(NCCc4ccc(OC)c(O)c4)nc(C#Cc4ccc(Cl)s4)nc31)[C@H](O)[C@@H]2O	25	32.8	–	–	104	7	56	–	–
CNC(=O)[C@@]12C[C@@H]1[C@@H](n1cnc3c(NCCc4ccc(O)c(OC)c4)nc(C#Cc4ccc(Cl)s4)nc31)[C@H](O)[C@@H]2O	31	5.29	–	3.75	3.16	–	–	39.7	43.9
O[C@@H]1[C@H](O)[C@@H]2C[C@@H]2[C@H]1n1cnc2c(NCCc3ccccc3)nc(I)nc21	–	23.1	5860	–	–	–	–	–	–
